Source: patent US11130733B2, “4-OXO-alkylated tetramic acid compound, preparation method and use thereof” (BEIJING JOEKAI BIOTECH. LLC, priority 2017, dated 2021)

Key:
hERG potassium channel = hERG potassium channel (Homo sapiens, UniProt Q12809); assay: hERG current, whole-cell patch clamp on HEK-hERG stable cell line; type: cell-based
Description: Rapidly activated human delayed rectifier outward potassium current (IKr) is mainly mediated by hERG ion channels, and participates in human cardiomyocyte repolarization. Pharmaceutical blockade of this current is the main cause of prolonged QT syndrome, even acute arrhythmia and sudden death clinically.
In this experiment, a stable cell line HEK-hERG (from the Academy of Military Medical Sciences) was selected, and the whole-cell patch clamp technique was used to record the hERG current. Cell suspension was collected and added to a 35 mm culture dish, which was placed on an inverted microscope carrier. After cell attachment, perfusion was performed with an extracellular fluid at a flow rate of 1-2 mL/min. A glass microelectrode was drawn in two steps by a micropipette puller, and after filling with electrode inner fluid, the water resistance of the glass microelectrode was 2-5 MΩ. After the whole cell recording mode was established, the clamping potential was maintained to −80 mV. A depolarization voltage was exerted to +60 mV for 850 ms, followed by repolarization to −50 mV for 1275 ms to induce an hERG tail current. After current stabilization, continuous extracellular perfusion administration from a low concentration to a high concentration was adopted. Starting from the low concentration, continuous perfusion was performed until the efficacy was stable, followed by perfusion of the next concentration. When the inhibitory rate of a compound or positive control to the hERG current was less than 50%, the CV of each of five consecutive current values was less than 10%. When the inhibitory rate of a compound or positive control to the hERG current was more than 50% but less than 70%, the CV of each of five consecutive current values was less than 20%. If a current amplitude was reduced by less than 200 pA, or if the inhibitory rate was more than 70%, the CV of each of five consecutive current values was less than 30%.
A certain amount of a test sample was weighed and dissolved into DMSO to prepare a 30 mM stock solution. Prior to the experiment, the above stock solution was diluted by DMSO 10 times and 3 times step by step, and then the solution was diluted by extracellular fluid to a required concentration. The solution at working concentration should be checked for precipitation before use. If precipitation existed, the stock solution would be diluted to increase the final concentration of DMSO in the extracellular fluid. However, the final concentration of DMSO in the extracellular fluid would not exceed 0.5%. Continuous perfusion from low to high concentrations was done during the experiment. The half inhibitory concentration (IC50) of the test sample was obtained by the best fitting of Logistic equation.
When data were processed, stimulus release and signal acquisition were carried out by the software patchmaster; and a patch clamp amplifier amplified the signal and filtered it to 10 KHz. Fitmaster, excel, spass 21.0, and the like were used for further data analysis and curve fitting. The data were shown as mean values±standard deviation. In data processing, when the blocking effect on hERG was determined, the peak value of a tail current and its baseline were corrected. The inhibitory rates of the tail current were used to show the effects of various compounds at different concentrations. The inhibitory rate=100×(the peak value of the tail current before administration−the peak value of the tail current after administration)/the peak value of the tail current before administration %. IC50 values were fitted by the Hill equation:
[formula] wherein, y: I/Icontrol; max: 100%; min: 0%; [drug]: concentration of the test sample; nH: Hill slope; IC50: maximum half inhibition concentration of the test substance.
To induce a peak current of hERG tail current, the clamping potential was maintained at −80 mV, depolarized to 60 mV for 0.85 s, and then repolarized to −50 mV for 1.275 s. […]

[1] = test system: Salmonella typhimurium TA98; assay: Mini Ames experiment, strain TA98; type: cell-based
Method: Histidine auxotrophic strains of Salmonella typhimurium were cultured in a special medium with quite a low content of histidine. The strains were difficult to divide due to lack of nutrition. If a test compound has mutagenicity, a large number of cells will undergo reverse mutation, synthesizing histidine by themselves and developing into colonies visible to the naked eye. In view of the close relationship between mutagenicity and carcinogenesis of chemicals, this method has been widely used in screening carcinogens. Some chemicals need metabolic activation to induce mutagenicity. Mammalian microsomal enzyme S9 can be added into the test system to eliminate the influence of metabolic activation on generation of mutagenicity.
[…] Mini Ames test with compound 50561

[2] = test system: Drosophilae containing and expressing human Abeta42 gene; assay: Pavlov's olfactory-related instantaneous memory test in Drosophila; type: in vivo; conditions: FIG. 3; with increase of dosage; compared with positive compound memantine hydrochloride
[3] = human, Inhibitory effect, Mean value ± standard deviation
[4] = human, Inhibitory effect, individual cells 1-4
[5] = TA98, With Metabolic Activation, 1.5 μg per well
[6] = TA98, With Metabolic Activation, 4 μg per well
[7] = TA98, With Metabolic Activation, 10 μg per well
[8] = TA98, With Metabolic Activation, 25 μg per well
[9] = TA98, With Metabolic Activation, 64 μg per well
[10] = TA98, With Metabolic Activation, 160 μg per well
[11] = TA98, With Metabolic Activation, 400 μg per well
[12] = TA98, With Metabolic Activation, 1000 μg per well
[13] = TA98, Without Metabolic Activation, 1.5 μg per well
[14] = TA98, Without Metabolic Activation, 4 μg per well
[15] = TA98, Without Metabolic Activation, 10 μg per well
[16] = TA98, Without Metabolic Activation, 25 μg per well
[17] = TA98, Without Metabolic Activation, 64 μg per well
[18] = TA98, Without Metabolic Activation, 160 μg per well
[19] = TA98, Without Metabolic Activation, 400 μg per well
[20] = TA98, Without Metabolic Activation, 1000 μg per well

hERG potassium channel, sequence (Q12809 whole entry): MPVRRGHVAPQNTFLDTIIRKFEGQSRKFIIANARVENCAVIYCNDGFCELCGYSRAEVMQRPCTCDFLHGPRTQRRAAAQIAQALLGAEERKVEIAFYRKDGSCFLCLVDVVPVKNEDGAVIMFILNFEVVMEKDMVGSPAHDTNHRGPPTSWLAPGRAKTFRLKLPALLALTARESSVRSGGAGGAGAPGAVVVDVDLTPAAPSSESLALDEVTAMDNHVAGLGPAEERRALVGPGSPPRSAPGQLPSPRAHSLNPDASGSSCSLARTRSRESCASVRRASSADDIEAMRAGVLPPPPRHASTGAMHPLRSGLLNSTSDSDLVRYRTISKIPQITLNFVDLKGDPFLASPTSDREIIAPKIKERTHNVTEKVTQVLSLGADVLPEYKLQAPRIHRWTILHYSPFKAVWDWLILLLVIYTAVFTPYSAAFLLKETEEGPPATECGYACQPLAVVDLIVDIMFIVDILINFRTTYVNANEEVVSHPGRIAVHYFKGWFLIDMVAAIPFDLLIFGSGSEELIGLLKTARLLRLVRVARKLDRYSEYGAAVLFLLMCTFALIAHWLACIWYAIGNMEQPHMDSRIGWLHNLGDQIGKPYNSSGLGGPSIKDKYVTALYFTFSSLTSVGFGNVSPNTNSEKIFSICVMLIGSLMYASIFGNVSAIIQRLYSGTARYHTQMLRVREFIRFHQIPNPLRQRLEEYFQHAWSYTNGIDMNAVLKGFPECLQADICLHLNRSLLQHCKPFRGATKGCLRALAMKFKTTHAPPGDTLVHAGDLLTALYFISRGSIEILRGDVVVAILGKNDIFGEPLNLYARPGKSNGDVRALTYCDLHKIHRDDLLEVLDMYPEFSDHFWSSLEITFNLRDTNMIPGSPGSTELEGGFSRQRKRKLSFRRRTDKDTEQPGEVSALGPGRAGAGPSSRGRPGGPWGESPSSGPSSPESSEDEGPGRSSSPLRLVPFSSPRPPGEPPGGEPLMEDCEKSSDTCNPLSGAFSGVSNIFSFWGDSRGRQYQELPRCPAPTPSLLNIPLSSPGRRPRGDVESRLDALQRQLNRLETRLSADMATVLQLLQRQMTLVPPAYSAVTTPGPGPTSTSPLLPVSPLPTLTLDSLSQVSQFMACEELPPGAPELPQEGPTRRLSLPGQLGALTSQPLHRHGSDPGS

## O=C1C=C(OCc2ccc(F)cc2)[C@H](Cc2ccccc2)N1 [Compound 50561]
hERG potassium channel; Hill equation fit, N=4
  Hill coefficient: 1.01
hERG potassium channel; human
  IC50: 26.7 µM
hERG potassium channel; [3]
  inhibition at 300 nM: 0.84 ± 3.93%
  inhibition at 1 µM: 3.43 ± 4.42%
  inhibition at 3 µM: 11.3 ± 4.09%
  inhibition at 10 µM: 25.7 ± 1.31%
  inhibition at 30 µM: 53.6 ± 3.6%
hERG potassium channel; [4]
  inhibition at 10 µM: 24.1%
  inhibition at 30 µM: 59.6%
[1]; [5]
  Mean Revertants Per Well: 8.67
  Ratio Treated/Solvent: 1.04
[1]; [6]
  Mean Revertants Per Well: 13.33
  Ratio Treated/Solvent: 1.60
[1]; [7]
  Mean Revertants Per Well: 9.33
  Ratio Treated/Solvent: 1.12
[1]; [8]
  Mean Revertants Per Well: 12.67
  Ratio Treated/Solvent: 1.52
[1]; [9]
  Mean Revertants Per Well: 12.33
  Ratio Treated/Solvent: 1.48
[1]; [10]
  Mean Revertants Per Well: 7.00
  Ratio Treated/Solvent: 0.84
[1]; [11]
  Mean Revertants Per Well: 0.00
  Ratio Treated/Solvent: 0.00
[1]; [12]
  Mean Revertants Per Well: 0.00
  Ratio Treated/Solvent: 0.00
[1]; [13]
  Mean Revertants Per Well: 9.00
  Ratio Treated/Solvent: 1.32
[1]; [14]
  Mean Revertants Per Well: 8.00
  Ratio Treated/Solvent: 1.17
[1]; [15]
  Mean Revertants Per Well: 8.00
  Ratio Treated/Solvent: 1.17
[1]; [16]
  Mean Revertants Per Well: 8.33
  Ratio Treated/Solvent: 1.22
[1]; [17]
  Mean Revertants Per Well: 7.33
  Ratio Treated/Solvent: 1.07
[1]; [18]
  Mean Revertants Per Well: 7.33
  Ratio Treated/Solvent: 1.07
[1]; [19]
  Mean Revertants Per Well: 0.00
  Ratio Treated/Solvent: 0.00
[1]; [20]
  Mean Revertants Per Well: 0.00
  Ratio Treated/Solvent: 0.00|
[1]; TA98, presence or absence of S9
  mutagenicity: no obvious mutagenicity
[2]
  dose-effect relationship to improve memory of drosophilae: eventually reaches or exceeds the level of the activity of the positive compound memantine hydrochloride
